Reference: patent US7041812B2, “Labeled nucleoside polyphosphates” (Amersham Biosciences Corp, priority 2001, dated 2006)

Legend:
[1] = test system: cloned DNA polymerase I (genetically engineered to eliminate 3′-5′ exonuclease activity, 5′-3′ exonuclease activity and discrimination against …); assay: Rates of incorporation of dTPn-DDAO (n=3 or 4) by DNA polymerase; format: biochemical; details: 1 μM nucleotide, 100 nM primer annealed to template, shrimp alkaline phosphatase, 23° C., FIG. 2
Method: (§1) Reactions were assembled at room temperature (23° C.) using the deoxynucleotides of Example (1–5). Reactions contained primer template combinations having a single oligonucleotide primer (represented by SEQ ID NO: 1) annealed to an oligonucleotide template corresponding to SEQ ID NO: 2.
(§2) Reaction conditions: A 70 μl reaction containing 50 mM Tris, pH 8.0, 5% glycerol, 5 mM MgCl2, 0.01% tween-20, 0.25 units shrimp alkaline phosphatase, 100 nM primer annealed to template, and 1 μM ddTPn-DDAO was assembled in a quartz fluorescence ultra-microcuvet in a LS-55 Luminescence Spectrometer (Perkin Elmer), operated in time drive mode. Excitation and emission wavelengths are 620 nm and 655 nm respectively. Slit widths were […] for excitation slits, 15 nm for emission slits. The reaction was initiated by the addition of 0.35 μl (11 units) of a cloned DNA polymerase I (genetically engineered to eliminate 3′-5′ exonuclease activity, 5′-3′ exonuclease activity and discrimination against dideoxynucleotides) or MMLV reverse transcriptase, and 0.25 mM MnCl2.

[2] = target: T1, MMLV reverse transcriptase (Moloney murine leukemia virus, UniProt P03355); assay: Rates of incorporation of dTPn-DDAO (n=3 or 4) by reverse transcriptase; format: biochemical; details: 1 μM nucleotide, 100 nM primer annealed to template, shrimp alkaline phosphatase, 23° C., FIG. 2
T1 construct: MMLV reverse transcriptase
Method: as §1, §2

In the case of Cc1cn([C@H]2CC(O)[C@@H](COP(=O)(O)OP(=O)(O)OP(=O)(O)OP(=O)(O)Oc3ccc4c(c3)C(C)(C)C3=C(Cl)C(=O)C(Cl)=CC3=N4)O2)c(=O)[nH]c1=O (some centres unmarked) [dT4P-DDAO, δ-9H(1,3-dichloro-9,9-dimethylacridin-2-one-7-yl)-deoxythymidine-5′-tetraphosphate], the rate of incorporation [1] is reported as “significantly higher than that of dT3P-DDAO” and the rate of incorporation [2] is reported as “significantly higher than that of dT3P-DDAO”.
